{"source": "patent US12104181B2", "about": "“Compositions and methods for treating viral infections targeting TRIM7” (THE BOARD OF REGENTS OF THE UNIVERSITY OF TEXAS SYSTEM, priority 2021, dated 2024)", "key": {"CVB3-GFP": {"system": "CVB3-GFP", "type": "cell-based, coxsackievirus B3", "conditions": "for CVB3 infectivity in control HeLa-Fluc cells: 1 MOI, 8 hpi"}, "CVB3 HA-2BC": {"system": "CVB3 HA-2BC", "assay": "Viral protein degradation in co-transfected 293T cells, Western blot", "type": "cell-based", "conditions": "MG132 10 μM at 24 hours post-transfection for 6 hours", "from_the_text": "Since TRIM7 binds 2C and 2BC, it was next tested whether TRIM7 targets either protein for degradation. […] 293T cells were co-transfected with plasmids expressing HA-tagged CVB3 viral proteins and 3×Flag-tagged TRIM7 (TRIM7-3F) or Fluc-expressing vector. […] Moreover, proteasome inhibition by MG132 restored HA-2BC protein in the presence of TRIM7 (FIG. 4F). Similar results were obtained with 2BC from other TRIM7-targeted enteroviruses, including EV71 and EVD68, whereas 2BC from TRIM7-insensitive MenV was unaffected (FIGS. 4G-4H). Accordingly, 2BC from EV71, but not MenV, interacted with TRIM7 in pulldown assays (FIG. 4I).\nProtein lysate preparation and Western blot. Tissue culture cells were lysed in Nonidet P-40 (NP-40) buffer (50 mM Tris pH 7.4, 150 mM NaCl, 1% (v/v) NP-40, 1 mM EDTA, protease inhibitor cocktail) and incubated on ice for 30 min, followed by centrifugation at 13,000 rpm for 20 min at 4° C. For mouse tissue lysates, fresh tissues were collected in 2 ml round-bottom Eppendorf tubes containing NP40 lysis buffer and cut to small pieces using scissors. Then the tissues were homogenized with a Bullet Blender homogenizer (Next Advanced Inc., Averill Park, NY), and centrifuged at 13,000 rpm for 20 min at 4° C. Western blot analyses were performed as previously described (Mar et al., 2018)."}, "[1]": {"system": "vesicular stomatitis virus", "type": "cell-based"}, "[2]": {"system": "coxsackievirus B3 (CVB3-GFP)", "type": "cell-based", "conditions": "HeLa cells, replicate R1; for Percent Infected R1: GFP-positive cells within RFP-positive gate"}}, "note": "Residues, ends and D or L forms follow the SMILES beside them. *: point of attachment. Cbz = O=C(OCc1ccccc1)*", "data": [{"compound": "c1ccc(CNc2nc(NCc3ccccc3)c3ccccc3n2)cc1", "note": "[DBeQ]", "values": [{"measurement": "rescue of CVB3-GFP infection in TRIM7-expressing cells", "setting": "CVB3-GFP", "result": "failed to rescue"}, {"measurement": "CVB3 infectivity in control HeLa-Fluc cells", "setting": "CVB3-GFP", "result": "modestly reduced"}]}, {"compound": "CC(C)C[C@@H](C=O)NC(=O)[C@H](CC(C)C)NC(=O)[C@H](CC(C)C)NC(=O)OCc1ccccc1", "note": "[MG132] (Cbz-Leu-Leu-Leu-aldehyde)", "values": [{"measurement": "HA-2BC protein in the presence of TRIM7", "setting": "CVB3 HA-2BC", "result": "restored"}, {"measurement": "rescue of CVB3-GFP infection in TRIM7-expressing cells", "setting": "CVB3-GFP", "result": "striking rescue"}, {"measurement": "rescue of viral replication from transfected CVB3-GFP RNA", "setting": "CVB3-GFP", "result": "rescued"}, {"measurement": "CVB3 infectivity in control HeLa-Fluc cells", "setting": "CVB3-GFP", "result": "modestly impaired"}, {"measurement": "rescue of infection in TRIM7-expressing cells, late addition", "setting": "CVB3-GFP; added at later time points (post primary translation, >4 hours)", "result": "failed to rescue"}]}, {"compound": "CO/C1=C\\C(C)=C\\[C@@H](C)[C@@H](O)[C@@H](C)C/C(C)=C/C=C/[C@H](OC)[C@@H]([C@@H](C)[C@@H](O)[C@H](C)[C@@]2(O)C[C@@H](O)[C@H](C)[C@@H](C(C)C)O2)OC1=O", "note": "[bafilomycin A1]", "values": [{"measurement": "replication of vesicular stomatitis virus", "setting": "[1]", "result": "inhibited"}, {"measurement": "CVB3 infectivity in control HeLa-Fluc cells", "setting": "CVB3-GFP", "result": "no impact"}]}, {"compound": "CCN(CC)CCCC(C)Nc1ccnc2cc(Cl)ccc12", "note": "(centres unmarked) [chloroquine]", "values": [{"measurement": "replication of vesicular stomatitis virus", "setting": "[1]", "result": "inhibited"}, {"measurement": "CVB3 infectivity in control HeLa-Fluc cells", "setting": "CVB3-GFP", "result": "no impact"}]}, {"compound": "MKRN2: human RING type E3 ligase expressed from lentiviral vector", "values": [{"measurement": "Percent Infected R1", "setting": "[2]", "result": 93.3, "unit": "%"}, {"measurement": "Z score R1", "setting": "[2]", "result": 0.06}]}, {"compound": "RAD18: human RING type E3 ligase expressed from lentiviral vector", "values": [{"measurement": "Percent Infected R1", "setting": "[2]", "result": 91.2, "unit": "%"}, {"measurement": "Z score R1", "setting": "[2]", "result": 0.033}]}, {"compound": "RNF5: human RING type E3 ligase expressed from lentiviral vector", "values": [{"measurement": "Percent Infected R1", "setting": "[2]", "result": 96.1, "unit": "%"}, {"measurement": "Z score R1", "setting": "[2]", "result": 0.1}]}, {"compound": "RNF20: human RING type E3 ligase expressed from lentiviral vector", "values": [{"measurement": "Percent Infected R1", "setting": "[2]", "result": 91.8, "unit": "%"}, {"measurement": "Z score R1", "setting": "[2]", "result": 0.041}]}, {"compound": "RNF40: human RING type E3 ligase expressed from lentiviral vector", "values": [{"measurement": "Percent Infected R1", "setting": "[2]", "result": 97.1, "unit": "%"}, {"measurement": "Z score R1", "setting": "[2]", "result": 0.11}]}, {"compound": "RNF126: human RING type E3 ligase expressed from lentiviral vector", "values": [{"measurement": "Percent Infected R1", "setting": "[2]", "result": 94.5, "unit": "%"}, {"measurement": "Z score R1", "setting": "[2]", "result": 0.08}]}, {"compound": "TRIM5: human RING type E3 ligase expressed from lentiviral vector", "values": [{"measurement": "Percent Infected R1", "setting": "[2]", "result": 56.2, "unit": "%"}, {"measurement": "Z score R1", "setting": "[2]", "result": "−0.412"}]}, {"compound": "TRIM21: human RING type E3 ligase expressed from lentiviral vector", "values": [{"measurement": "Percent Infected R1", "setting": "[2]", "result": 65.7, "unit": "%"}, {"measurement": "Z score R1", "setting": "[2]", "result": "−0.291"}]}, {"compound": "TRIM25: human RING type E3 ligase expressed from lentiviral vector", "values": [{"measurement": "Percent Infected R1", "setting": "[2]", "result": 53.7, "unit": "%"}, {"measurement": "Z score R1", "setting": "[2]", "result": "−0.444"}]}]}
